# Patent US20110045101A1, “FUNGICIDAL SUBSTITUTED AZOLES” (E.I. Du Pont De Nemours and Company, priority 2009, published 2011)
# How the values were obtained:
# Type in all cases: in vivo
# Conditions in all cases: 200 ppm; 100 = 100% disease control, 0 = no control relative to controls
# [1] = test system: Septoria tritici; test: Test G: wheat leaf blotch on wheat seedlings, sprayed the day before inoculation, visual disease rating
# Method in brief: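 Wheat seedlings were sprayed with compound suspensions, 200 ppm unless starred (40 ppm). After next-day spore inoculation, plants spent 48 h saturated at 24° C, then 19 days at 20° C, when disease was rated visually.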
# [2] = test system: Puccinia recondita f. sp. tritici; test: Test I: wheat leaf rust on wheat seedlings, sprayed the day before inoculation, visual disease rating
# Method in brief: (§1)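 Compounds were dissolved in acetone (3% of final volume), then suspended in 50/50 acetone/water with 250 ppm Trem 014 surfactant and sprayed to run-off on test plants. A 200 ppm suspension equals 500 g/ha. Ratings are at 200 ppm unless flagged as 40 ppm.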
# [3] = test system: Alternaria solani; test: Test D: tomato early blight, sprayed the day before inoculation, visual disease rating
# Method in brief: as §1
# [4] = test system: Botrytis cinerea; test: Test C: tomato Botrytis on tomato seedlings, sprayed the day before inoculation, visual disease rating
# Method in brief: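 Tomato seedlings sprayed to run-off with compound suspended in acetone/water with 250 ppm Trem 014 surfactant, at 200 ppm (≈500 g/ha) or 40 ppm where marked, one day before Botrytis cinerea inoculation. Disease rated visually.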
# [5] = test system: Puccinia recondita f. sp. tritici; test: Test H: wheat leaf rust, test suspension sprayed after inoculation of wheat seedlings, visual disease rating
# Method in brief: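 Wheat seedlings inoculated with P. recondita spores, held 24 h saturated at 20 °C, then 2 days in growth chamber at 20 °C; compound suspension (acetone/water with Trem 014) sprayed to run-off afterwards. Rated visually; 200 ppm (≈500 g/ha) unless marked *, which denotes 40 ppm.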
# [6] = test system: Erysiphe graminis f. sp. tritici; test: Test J: wheat powdery mildew on wheat seedlings, sprayed the day before inoculation, visual disease rating
# Method in brief: as §1
# [7] = test system: Septoria nodorum; test: Test F: wheat glume blotch on wheat seedlings, sprayed the day before inoculation, visual disease rating
# Method in brief: as §1
SMILES,Test G disease control rating [1] [%],Test I disease control rating [2] [%],Test D disease control rating [3] [%],Test C disease control rating [4] [%],Test H disease control rating [5] [%],Test J disease control rating [6] [%],Test F disease control rating [7] [%]
Cc1ncn(-c2ccc(Cl)c(F)c2)c1-c1ccnc(Br)c1 [compound 345],27,0,0,64,0,0,0
Cc1ncn(-c2ccc(Cl)c(F)c2)c1-c1cncc(Br)c1 [compound 346],38,9,0,99,9,0,0
Cc1ncn(-c2ccc(Cl)c(F)c2)c1-c1ccc(Br)cn1 [compound 347],70,9,0,93,26,0,0
Cc1ncn(-c2ccc(Cl)c(F)c2)c1-c1cccnc1Cl [compound 348],8,0,0,0,0,27,0
Fc1cc(-n2c(Cl)nc(Br)c2-c2c(F)ccc(F)c2F)ccc1Cl [compound 350],91,99,100,99,0,100,82
Fc1ccc(F)c(-c2c(Br)nc(Cl)n2-c2ccc(Cl)cc2)c1F [compound 351],93,100,100,100,54,100,99
Fc1ccc(-n2c(Cl)nc(Br)c2-c2c(F)ccc(F)c2F)cc1 [compound 352],92,97,100,100,18,77,87
Fc1cc(-n2c(Cl)nc(CCl)c2-c2ccnc(Br)c2)ccc1Cl [compound 353],8,41,0,0,0,0,0
Cc1nc(Cl)n(-c2ccc(Cl)c(F)c2)c1-c1ccnc(Br)c1 [compound 354],93,98,99,100,0,97,0
Fc1cc(-n2c(Cl)nc(CCl)c2-c2cncc(Br)c2)ccc1Cl [compound 355],3,28,0,0,0,0,0
Cc1nc(Cl)n(-c2ccc(Cl)c(F)c2)c1-c1cncc(Br)c1 [compound 356],72,0,57,98,17,0,0
Fc1cc(-n2c(Cl)nc(CCl)c2-c2ccc(Br)cn2)ccc1Cl [compound 357],50,55,0,63,0,0,100
Cc1nc(Cl)n(-c2ccc(Cl)c(F)c2)c1-c1ccc(Br)cn1 [compound 358],90,41,0,99,0,0,0
Fc1cc(-n2c(Cl)nc(CCl)c2-c2cccnc2Cl)ccc1Cl [compound 359],35,80,0,98,0,0,0
Cc1nc(Cl)n(-c2ccc(Cl)c(F)c2)c1-c1cccnc1Cl [compound 360],95,99,99,100,9,98,0
Clc1ccc(-c2c(Cl)nc(Cl)n2Cc2cccc(Cl)c2)cc1 [compound 361],93,74,0,99,9,80,0
Fc1cccc(-n2cnc(Cl)c2-c2c(F)cc(F)cc2F)c1 [compound 362],86,83,99,100,0,49,0
CN(C)c1ncn(-c2cccc(F)c2)c1-c1c(F)cc(F)cc1F [compound 363],53,0,0,99,9,0,0
Fc1cccc(-n2cnc(Cl)c2-c2c(F)ccc(F)c2F)c1 [compound 364],58,98,100,100,0,83,0
Fc1cccc(-n2c(Cl)nc(Cl)c2-c2c(F)cc(F)cc2F)c1 [compound 365],91,99,100,100,54,96,40
